Data from patent US7985751B2, “Piperazine derivatives” (M's Science Corporation, priority 2005, dated 2011).
Counter-ions that a name gives are not always drawn.

Assays:
[1] = test system: sigma receptor-mediated neck dystonia in rats; conditions: microinjection, Nakazawa M et al 1999; cited from earlier work
σ2 receptors = molecular target: T1, σ2 receptors (Homo sapiens, UniProt Q5BJF2); assay: σ2 receptor binding assay ([3H]DTG displacement with σ1 masked by pentazocine, HEK-293 cell membranes); conditions: σ1 versus σ2 binding, result in words
T1 construct: incubating 50 μg of HEK-293 cell membranes with 10 nM [^3H]-DTG; endogenous in cells; host or cells: HEK-293
T1 sequence (Q5BJF2 whole entry): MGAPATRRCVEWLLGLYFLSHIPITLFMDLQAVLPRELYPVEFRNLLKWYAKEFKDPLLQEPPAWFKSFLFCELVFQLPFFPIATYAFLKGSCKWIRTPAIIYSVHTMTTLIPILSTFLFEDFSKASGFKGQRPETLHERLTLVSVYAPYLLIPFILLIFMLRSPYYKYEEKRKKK
Description: (§1) Sigma 1 (σ1) and sigma 2 (σ2) receptor binding assays are carried out in membranes from HEK-293 (Human Embryonic Kidney) cells.
(§2) Confluent HEK-293 cells are harvested in PBS/5 mM EDTA. They are centrifuged at 2000 rpm for 5 min and then washed two times in PBS. Cells are homogenized in 20 mM Tris-HCL (pH=7.5) containing 5 mM EDTA, 0.5 mM PMSF and 0.5 μg/ml leupeptin using a Dounce homogenizer and sonicated for 5 minutes.
Nuclear debris and intact cells are removed by centrifugation at 3000 rpm for 10 minutes at 4° C. […]
Proteins are determined using the Bio Rad Protein Assay Dye Reagent and the membranes are aliquoted and frozen at −80° C. […]
Total binding is determined by incubating 50 μg of HEK-293 cell membranes with 10 nM [^3H]-DTG (Perkin-Elmer, 58 Ci/mmol) in the presence of 10 μM pentazocine and assay buffer (50 mM Tris-HCl, pH=8.3) in a total volume of 200 μl. Non specific binding is determined in the presence of 10 μM unlabeled DTG. […] The filters are washed three times and the membrane-bound radioactivity is determined in a Microbeta scintillation counter. […]
(§3) Specific binding is determined by subtraction of non specific binding from total binding. […]

σ1 receptors = molecular target: T2, σ1 receptors (Homo sapiens, UniProt Q99720); assay: σ1 receptor binding assay ((+)-[3H]pentazocine displacement, HEK-293 cell membranes); conditions: for affinity for sigma receptors, in particular sigma-1 receptors: result in words
T2 construct: incubating 50 μg of HEK-293 cell membranes with 10 nM (+)-[^3H]-pentazocine; endogenous in cells; host or cells: HEK-293
T2 sequence (Q99720 whole entry): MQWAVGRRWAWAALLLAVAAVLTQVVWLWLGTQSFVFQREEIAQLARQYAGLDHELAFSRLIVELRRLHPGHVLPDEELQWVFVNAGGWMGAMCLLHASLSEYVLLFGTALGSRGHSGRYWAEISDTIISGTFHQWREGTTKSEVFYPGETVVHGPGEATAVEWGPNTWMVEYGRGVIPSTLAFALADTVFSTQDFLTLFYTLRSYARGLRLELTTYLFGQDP
Description: as §1, §2
Nuclear debris and intact cells are removed by centrifugation at 3000 rpm for 10 minutes at 4° C. The supernatant is centrifuged at 12000 rpm for 30 minutes and the resulting pellet is resuspended in 25 mM Tris-HCL (pH=7.5), 25 mM Mg2Cl, 10% sucrose containing 0.5 mM PMSF, 2 mM AEBSF, 1 mM EDTA, 130 μM bestatin, 14 μM E-64, 1 μM leupeptin, and 0.3 mM aprotinin.
Proteins are determined using the Bio Rad Protein Assay Dye Reagent and the membranes are aliquoted and frozen at −80° C.
The binding assays are performed in 96-well plates.
σ1 receptors are labeled using the σ1 selective probe (+)-[^3H] Pentazocine (Bowen W D et al, Mol Neuropharmacol 3, 117-126, 1993).
Total binding is determined by incubating 50 μg of HEK-293 cell membranes with 10 nM (+)-[^3H]-pentazocine (Perkin-Elmer, 35 Ci/mmol) and assay buffer (50 mM Tris-HCl, pH=8.3) in a total volume of 200 μl. Non specific binding is determined in the presence of 10 μM unlabeled pentazocine. For competition experiments, 50 μl of displacing compound is added at 8 different concentrations. Incubations are carried out for 120 min at 37° C. Assays are terminated by dilution with ice-cold 10 mM Tris-HCl, pH=8.3 and vacuum filtration through glass fibers using a Skatron cell harvester from Molecular Devices. The filters are washed three times and the membrane-bound radioactivity is determined in a Microbeta scintillation counter.
Filters are soaked in 0.5% polyethyleneimine for 1 hour before use.
as §3

With `COc1ccc(CCN2CCN(CCCc3ccccc3)CC2)cc1OC` [SA-4503, 1-[2-(3,4-dimethoxyphenyl)ethyl]-4-(3-phenylpropyl)piperazine] as the molecule, how does the “induction of neck dystonia” value [1] read?
The value was “no effect”.

Which “selectivity for σ1 receptor over σ2 receptor” value (σ2 receptors) does the source give for `COc1cc(CCN2CCN(CCCc3ccccc3)CC2)cc(OC)c1OC.Cl` [1-[2-(3,4,5-trimethoxyphenyl)ethyl]-4-(3-phenylpropyl)piperazine hydrochloride] here?
Its value is “highly selective”.

And the IC50 (σ1 receptors)?
The IC50 was less than 300 nM.

What about the “affinity for sigma receptors, in particular sigma-1 receptors” value (σ1 receptors) of the same molecule?
Its value is “high affinity”.

For `Cc1ccccc1NC(=N)Nc1ccccc1C` [DTG, 1,3-di-2-tolyl-guanidine], which “induction of neck dystonia” value [1] is on record?
Its value is “induced neck dystonia”.

For `Fc1ccccc1CCN1CCN(CCCc2ccccc2)CC1` [Example 4, 1-[2-(2-Fluorophenyl)ethyl]-4-(3-phenylpropyl)piperazine dihydrochloride], which “selectivity for σ1 receptor over σ2 receptor” value (σ2 receptors) is on record?
Its value is “especially good”.

And the “affinity for sigma receptors, in particular sigma-1 receptors” value (σ1 receptors)?
The value was “especially good”.
